According to US20170296682A1, “DERIVATIVES OF DIBENZOTHIOPHENE IMAGING OF alpha-7 NICOTINIC ACETYLCHOLINE RECEPTORS” (THE JOHNS HOPKINS UNIVERSITY, priority 2015, published 2017):
Several values for one entry are separate records, joined by “and”; a condition that tells them apart may be missing. Identical values can stand only once. Like-named read-outs stand apart in the source and are kept apart here.

What was measured:
[1] = target: T1, α7-nAChR (Mus musculus, UniProt P49582); conditions: in vivo
T1 sequence (P49582 23-502): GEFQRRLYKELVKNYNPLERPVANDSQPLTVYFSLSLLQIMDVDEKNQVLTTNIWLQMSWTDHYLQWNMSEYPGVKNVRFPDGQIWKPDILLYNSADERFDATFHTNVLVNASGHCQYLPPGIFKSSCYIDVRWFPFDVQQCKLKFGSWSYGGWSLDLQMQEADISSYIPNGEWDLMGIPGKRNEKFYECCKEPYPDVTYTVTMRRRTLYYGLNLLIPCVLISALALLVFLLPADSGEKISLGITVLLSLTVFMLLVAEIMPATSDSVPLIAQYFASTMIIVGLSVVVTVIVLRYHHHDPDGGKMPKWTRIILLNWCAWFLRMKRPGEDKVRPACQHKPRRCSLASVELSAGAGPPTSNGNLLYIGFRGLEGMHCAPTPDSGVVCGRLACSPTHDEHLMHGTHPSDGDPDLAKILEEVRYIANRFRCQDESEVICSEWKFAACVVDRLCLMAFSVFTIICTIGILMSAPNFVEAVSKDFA

[2] = target: T2, α7-nAChR (Homo sapiens, UniProt P36544); conditions: read-out: α7-nAChR, Ki, cited from earlier work
T2 sequence (P36544 23-502): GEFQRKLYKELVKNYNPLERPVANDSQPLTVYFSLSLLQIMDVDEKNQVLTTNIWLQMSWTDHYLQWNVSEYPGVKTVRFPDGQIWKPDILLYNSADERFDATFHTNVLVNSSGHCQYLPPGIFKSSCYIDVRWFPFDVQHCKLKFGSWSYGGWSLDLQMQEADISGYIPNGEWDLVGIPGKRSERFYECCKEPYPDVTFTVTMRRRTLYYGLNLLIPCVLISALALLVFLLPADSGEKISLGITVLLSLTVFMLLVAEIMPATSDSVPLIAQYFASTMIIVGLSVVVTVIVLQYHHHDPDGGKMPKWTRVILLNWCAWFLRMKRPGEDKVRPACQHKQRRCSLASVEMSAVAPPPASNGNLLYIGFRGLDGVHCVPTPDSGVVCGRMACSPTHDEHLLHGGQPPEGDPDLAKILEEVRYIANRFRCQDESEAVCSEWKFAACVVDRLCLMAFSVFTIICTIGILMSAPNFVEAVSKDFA

[3] = target: T1, α7-nAChR; conditions: in vivo; cited from earlier work
[4] = target: T3, α7-nAChR (Rattus norvegicus, UniProt Q05941); conditions: read-out: KD of radiotracer, α7-nAChR; cited from earlier work
T3 sequence (Q05941 23-502): as the sequence (P49582 23-502) above, with T402A counted along it

[5] = target: T3, α7-nAChR; experiment: biochemical; format: binding
[6] = target: T4, α3β4-nAChR (Rattus norvegicus, UniProt P04757+P12392); experiment: Heteromeric nAChR binding assay, transfected HEK293 membranes, [3H]epibatidine
T4 construct: expressed in transfected cells
T4 sequence (P04757 26-499): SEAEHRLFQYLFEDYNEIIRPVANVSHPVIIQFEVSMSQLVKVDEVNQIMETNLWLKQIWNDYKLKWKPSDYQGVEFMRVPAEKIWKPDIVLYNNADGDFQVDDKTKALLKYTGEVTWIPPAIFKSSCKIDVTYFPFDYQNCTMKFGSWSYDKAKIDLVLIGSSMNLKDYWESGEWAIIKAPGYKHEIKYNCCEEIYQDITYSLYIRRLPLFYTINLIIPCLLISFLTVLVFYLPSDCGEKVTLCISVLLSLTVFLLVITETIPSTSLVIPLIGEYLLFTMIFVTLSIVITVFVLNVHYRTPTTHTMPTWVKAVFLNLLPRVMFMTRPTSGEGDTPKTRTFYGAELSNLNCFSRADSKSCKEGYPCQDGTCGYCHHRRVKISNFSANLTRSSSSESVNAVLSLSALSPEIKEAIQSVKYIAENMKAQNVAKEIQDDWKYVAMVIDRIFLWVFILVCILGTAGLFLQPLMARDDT
T4 sequence (P12392 21-495): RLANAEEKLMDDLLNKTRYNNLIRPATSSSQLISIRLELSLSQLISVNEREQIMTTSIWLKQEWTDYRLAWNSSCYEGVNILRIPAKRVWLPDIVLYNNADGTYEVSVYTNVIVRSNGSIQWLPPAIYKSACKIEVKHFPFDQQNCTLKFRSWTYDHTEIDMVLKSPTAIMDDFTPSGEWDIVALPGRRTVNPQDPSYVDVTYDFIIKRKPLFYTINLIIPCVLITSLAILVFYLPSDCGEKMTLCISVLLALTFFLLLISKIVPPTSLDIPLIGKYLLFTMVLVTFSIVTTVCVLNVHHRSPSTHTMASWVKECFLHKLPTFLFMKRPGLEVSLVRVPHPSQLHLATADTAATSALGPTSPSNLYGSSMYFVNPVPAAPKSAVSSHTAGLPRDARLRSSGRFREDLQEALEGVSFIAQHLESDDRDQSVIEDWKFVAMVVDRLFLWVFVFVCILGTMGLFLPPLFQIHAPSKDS

[7] = target: α4β2-nAChR (Rattus norvegicus, UniProt P09483+P12390); experiment: as above
Chain of α4β2-nAChR (P09483 31-630): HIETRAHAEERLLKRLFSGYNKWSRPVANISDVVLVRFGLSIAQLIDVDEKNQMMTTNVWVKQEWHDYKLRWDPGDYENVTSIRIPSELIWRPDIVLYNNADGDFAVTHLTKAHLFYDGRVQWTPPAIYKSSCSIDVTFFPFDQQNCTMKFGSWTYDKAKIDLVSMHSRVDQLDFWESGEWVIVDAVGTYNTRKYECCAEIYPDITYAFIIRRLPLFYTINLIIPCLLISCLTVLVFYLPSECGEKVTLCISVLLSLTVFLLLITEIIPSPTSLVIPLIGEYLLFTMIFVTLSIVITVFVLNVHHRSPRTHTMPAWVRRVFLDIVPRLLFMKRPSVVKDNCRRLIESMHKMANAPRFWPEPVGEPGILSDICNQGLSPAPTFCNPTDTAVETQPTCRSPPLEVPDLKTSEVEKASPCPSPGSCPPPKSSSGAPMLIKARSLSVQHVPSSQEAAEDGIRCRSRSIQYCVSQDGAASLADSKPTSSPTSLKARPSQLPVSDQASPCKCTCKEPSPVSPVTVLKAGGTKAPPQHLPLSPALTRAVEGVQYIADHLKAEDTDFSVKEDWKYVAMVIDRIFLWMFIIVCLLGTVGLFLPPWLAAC
Chain of α4β2-nAChR (P12390 25-500): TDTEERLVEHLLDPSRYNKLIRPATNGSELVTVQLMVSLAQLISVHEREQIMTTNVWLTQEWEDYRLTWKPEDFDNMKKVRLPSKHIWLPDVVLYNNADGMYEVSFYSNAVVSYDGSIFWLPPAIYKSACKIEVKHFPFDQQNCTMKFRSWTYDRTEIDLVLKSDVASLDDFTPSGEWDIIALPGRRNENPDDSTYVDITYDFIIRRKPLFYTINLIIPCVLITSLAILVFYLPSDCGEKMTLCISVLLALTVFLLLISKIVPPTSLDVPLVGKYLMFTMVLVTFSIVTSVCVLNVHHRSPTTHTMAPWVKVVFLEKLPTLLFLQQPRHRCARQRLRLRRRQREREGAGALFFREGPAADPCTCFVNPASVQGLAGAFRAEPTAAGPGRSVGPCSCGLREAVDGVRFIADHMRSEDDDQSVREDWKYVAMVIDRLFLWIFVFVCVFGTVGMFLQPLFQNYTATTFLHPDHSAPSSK

[8] = target: T5, α4β4-nAChR (Rattus norvegicus, UniProt P09483+P12392); experiment: as above
T5 construct: expressed in transfected cells
T5 sequence (P09483 31-630): as the sequence (P09483 31-630) above
T5 sequence (P12392 21-495): as the sequence (P12392 21-495) above

[9] = target: T6, α2β4-nAChR (Rattus norvegicus, UniProt P12389+P12392); experiment: as above
T6 construct: expressed in transfected cells
T6 sequence (P12389 28-511): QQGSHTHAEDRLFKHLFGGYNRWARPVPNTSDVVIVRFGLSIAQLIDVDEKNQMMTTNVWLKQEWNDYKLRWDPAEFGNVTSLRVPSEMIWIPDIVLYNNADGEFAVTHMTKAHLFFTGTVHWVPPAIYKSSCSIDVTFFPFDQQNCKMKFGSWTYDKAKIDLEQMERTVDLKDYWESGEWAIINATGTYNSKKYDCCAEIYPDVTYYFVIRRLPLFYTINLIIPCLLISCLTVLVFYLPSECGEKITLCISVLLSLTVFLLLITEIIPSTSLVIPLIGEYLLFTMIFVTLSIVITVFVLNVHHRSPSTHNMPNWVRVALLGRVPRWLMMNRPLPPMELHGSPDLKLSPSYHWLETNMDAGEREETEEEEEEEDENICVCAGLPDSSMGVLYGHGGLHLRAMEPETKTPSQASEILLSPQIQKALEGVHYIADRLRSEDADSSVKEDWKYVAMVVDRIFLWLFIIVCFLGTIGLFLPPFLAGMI
T6 sequence (P12392 21-495): as the sequence (P12392 21-495) above

[10] = target: α3β2-nAChR (Rattus norvegicus, UniProt P04757+P12390); experiment: as above
Chain of α3β2-nAChR (P04757 26-499): as the sequence (P04757 26-499) above
Chain of α3β2-nAChR (P12390 25-500): as the sequence (P12390 25-500) above

[11] = target: T7, Human 5-HT3 (Homo sapiens, UniProt P46098); conditions: read-out: KD of radiotracer, 5-HT3; cited from earlier work
T7 sequence (P46098 24-478): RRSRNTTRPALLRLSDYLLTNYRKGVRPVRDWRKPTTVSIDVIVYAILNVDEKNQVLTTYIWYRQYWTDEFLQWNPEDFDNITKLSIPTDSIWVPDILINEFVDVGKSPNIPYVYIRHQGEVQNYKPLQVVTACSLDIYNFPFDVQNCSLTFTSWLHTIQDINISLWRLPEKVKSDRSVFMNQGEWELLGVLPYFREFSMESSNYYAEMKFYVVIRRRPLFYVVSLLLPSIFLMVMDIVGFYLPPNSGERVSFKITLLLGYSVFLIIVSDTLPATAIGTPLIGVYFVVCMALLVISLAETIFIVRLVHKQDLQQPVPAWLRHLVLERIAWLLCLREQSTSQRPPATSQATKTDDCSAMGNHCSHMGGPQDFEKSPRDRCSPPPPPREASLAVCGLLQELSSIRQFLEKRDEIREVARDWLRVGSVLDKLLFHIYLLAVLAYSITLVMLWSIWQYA

[12] = target: T1, α7-nAChR; conditions: drugs 2 mg/kg sc, 10 min before radiotracer, 90 min
[13] = target: α2β2-nAChR (Rattus norvegicus, UniProt P12389+P12390); experiment: Heteromeric nAChR binding assay, transfected HEK293 membranes, [3H]epibatidine
Chain of α2β2-nAChR (P12389 28-511): as the sequence (P12389 28-511) above
Chain of α2β2-nAChR (P12390 25-500): as the sequence (P12390 25-500) above

[14] = target: T7, Human 5-HT3; experiment: 5-HT3(h) binding assay, recombinant HEK293 cells, [3H]GR65630
[15] = target: T1, α7-nAChR; conditions: in vivo; remark: listed apart in the source
[16] = target: T1, α7-nAChR; experiment: Blockade of [18F]ASEM in CD1 mice with mouse-equivalent doses of clinical α7-nAChR drugs; format: in vivo; set-up: The brains were rapidly removed and dissected on ice; tissue Charles River Laboratories; host or cells: brain of live male CD-1 mice
[17] = target: T1, α7-nAChR; set-up: The brains were rapidly removed and dissected on ice; tissue Charles River Laboratories; host or cells: brain of live male CD-1 mice; species or system CD-1 mice; conditions: in vivo
[18] = target: T2, α7-nAChR; conditions: read-out: Ki α7-nAChR (literature); cited from earlier work
[19] = target: T1, α7-nAChR; set-up: The brains were rapidly removed and dissected on ice; tissue Charles River Laboratories; host or cells: brain of live male CD-1 mice; species or system CD-1 mice; conditions: in vivo; remark: listed apart in the source
[20] = test system: a7-nAChR; conditions: baboon
[21] = stably transfected HEK293 cells, [3H]epibatidine (0.5 nM)
[22] = previously published values, varied assay conditions

In the case of `O=c1cccc2n1C[C@@H]1CNC[C@H]2C1` [cytisine], the “blockade of [18F]7a accumulation in mouse brain” value (shortened to “blockade of [18F]7a accumulation”) [1] is reported as “insignificant reduction of radioactivity accumulation in all regions studied”.

For `[11CH3]N1CC2CN(c3ccc(-c4ccccc4)nn3)CC2C1` (centres unmarked), the Ki [2] is given as 10.8 nM and the “BPND in cortex, Mice” value [3] is given as 0.2-0.5.

For [^125I]α-bungarotoxin, the Kd [4] is listed as 0.7 nM.

For `O=[N+]([O-])c1ccc2c(c1)-c1ccc(N3CCN4CCC3CC4)cc1S2(=O)=O` [Compound 11, 7-(1,4-Diazabicyclo[3.2.2]nonan-4-yl)-2-nitrodibenzo[b,d]-thiophene 5,5-Dioxide], the Ki ([5]; read-out: Ki α7-nAChR) was 3.41 nM and 6.21 nM.

In the case of `[18F]CCn1ccc2ccc(-c3nnc(N4CCN5CCC4CC5)o3)cc21`, the Ki [2] is given as 2.5 nM.

For `O=S1(=O)c2ccccc2-c2c(N3CCN4CCC3CC4)ccc(F)c21` [Compound 7e, 1-(1,4-Diazabicyclo[3.2.2]nonan-4-yl)-4-fluorodibenzo[b,d]-thiophene 5,5-Dioxide], the Ki [6, 21] was 261 nM, the Ki ([5]; read-out: Ki α7-nAChR) was 17.8 nM and 20.3 nM and the “selectivity α7/α4β2” value [7] was 210. For the same compound, the Ki [7, 21] was 4000 nM, the Ki [8, 21] was 251 nM and the Ki [9, 21] was 562 nM. For the same compound, the Ki [10, 21] was 2000 nM.

For `[11CH3]c1ccc(OC(=O)N2CCN3CCC2CC3)cc1`, the “BPND in cortex, Mice” value [3] is listed as ~0.6.

For `O=[11C](Nc1ccc(Br)cc1)OC1CN2CCC1CC2` (centres unmarked), the “BPND in cortex, Mice” value [3] is listed as ~0.3.

In the case of `O=[N+]([O-])c1cccc2c1S(=O)(=O)c1cc(N3CCN4CCC3CC4)ccc1-2` [Compound 10, 3-(1,4-Diazabicyclo[3.2.2]nonan-4-yl)-6-nitrodibenzo[b,d]-thiophene 5,5-Dioxide], the Ki ([5]; Ki α7-nAChR) is reported as 0.35 nM and the Ki ([5]; read-out: Ki α7-nAChR) is reported as 0.34 nM.

In the case of `Cc1[nH]cnc1CCC(=O)c1cn(C)c2ccccc12` [[^3H]GR65630], the Kd [11] is listed as 0.5 nM.

In the case of `Cc1nccn1CC1CCc2c(c3ccccc3n2C)C1=O` (centres unmarked) [ondansetron], the “effect on accumulation of [18F]7a in mouse brain” value [12] is reported as “absence of blockade”.

For `O=S1(=O)c2ccc(F)cc2-c2ccc(N3CCN4CCC3CC4)cc21` [Compound 7c, 7-(1,4-Diazabicyclo[3.2.2]nonan-4-yl)-2-fluorodibenzo[b,d]-thiophene 5,5-Dioxide], the Ki [6, 21] was 5000 nM, the Ki ([5]; Ki α7-nAChR) was 1.35 nM and the Ki ([5]; Ki α7-nAChR (text)) was 1.3 nM. For the same compound, the Ki ([5]; read-out: Ki α7-nAChR) was 1.32 nM, the Ki [13, 21] was 1000 nM and the “selectivity α7/α4β2” value [7] was 663. For the same compound, the Ki [7, 21] was 885 nM, the Ki [8, 21] was 3000 nM and the Ki [9, 21] was 8000 nM. The “selectivity α7/5HT3” value [14] was 378, the Ki ([14]; Human 5-HT3 recombinant/HEK293 cells, [3H]GR65630 (0.35 nM)) was 505 nM and the “behavioral / locomotor activity changes” value [15] was “Neither behavioral nor locomotor activity changes were observed”. For the same compound, the Ki [10, 21] was 2000 nM.

In the case of `[18F]c1ccc(-c2nnc(N3CCN4CCC3CC4)o2)cc1`, the “BPND in cortex, Mice” value [3] is listed as 0.4.

In the case of `COc1ccc(/C=C2\CCCN=C2c2cccnc2)c(OC)c1` [DMXB-A, Dimethoxybenzylidene anabaseine], the “blockade of [18F]ASEM binding” value ([16]; 3 mg/kg, cortex) is reported as 40%, the “blockade of [18F]ASEM binding” value ([16]; 3 mg/kg, hippocampus) is reported as 28% and the “blockade of [18F]ASEM binding” value ([16]; 10 mg/kg, hippocampus, cortex, subcolliculus) is reported as 50-70%. For the same compound, the “blockade of [18F]ASEM binding” value ([16]; 25 mg/kg, hippocampus, cortex, superior and inferior colliculus) was 50-60% and the “blockade of [18F]ASEM binding” value ([16]; 0.1, 0.3, and 1 mg/kg) was “did not show significant blockade”.

For `[11CH3]n1cccc1-c1nnc(N2CCN3CCC2CC3)o1`, the Ki [2] is given as 2.2 nM.

In the case of `O=C(Oc1ccc([76Br])cc1)N1CCN2CCC1CC2`, the Ki [2, 22] is listed as 24.9 nM.

With `O=S1(=O)c2cc(F)ccc2-c2ccc(N3CCN4CCC3CC4)cc21` [Compound 7b, 4-(7-Fluorodibenzo[b,d]thiophen-3-yl)-1,4-diazabicyclo-[3.2.2]nonane 5,5-Dioxide] the Ki ([5]; read-out: Ki α7-nAChR) was 1.02 nM and 1.37 nM.

For `CN1CCCC1c1cccnc1` (centres unmarked) [nicotine], the “blockade of [18F]7a accumulation” value [1] was “significant blockade in all regions except the nAChR-poor cerebellum”.

For `O=S1(=O)c2ccc(I)cc2-c2ccc(N3CCN4CCC3CC4)cc21` [Compound 15, 7-(1,4-Diazabicyclo[3.2.2]nonan-4-yl)-2-iododibenzo[b,d]-thiophene 5,5-Dioxide], the Ki [6] was 9000 nM, the Ki ([5]; read-out: Ki α7-nAChR) was 6.46 nM and 8.77 nM and the Ki [13] was 784 nM. For the same compound, the Ki [7] was 477 nM, the “selectivity α7/α4β2” value [7] was 63 and the Ki [8] was 5000 nM. It also gave a Ki [9] of 6000 nM and a Ki [10] of 1000 nM.

In the case of `[11CH3]N1CC2CN(c3ccc(-c4ccc5[nH]ccc5c4)nn3)CC2C1` (centres unmarked), the “BPND in cortex, Mice” value [3] is given as 0.5.

With `O=S1(=O)c2ccc([18F])cc2-c2ccc(N3CCN4CCC3CC4)cc21` [[^18F]7c, 4-(8-[^18F]fluorodibenzo[b,d]thiophen-3-yl)-1,4-diazabicyclo[3.2.2]nonane 5,5-dioxide] the Ki ([5]; Ki α7-nAChR (text)) was 1.3 nM, the “Approximate BPND, Coll” value [17] was 2.0 ± 0.5 and the “Approximate BPND, Ctx” value [17] was 2.0 ± 0.3. The “Approximate BPND, Hipp” value [17] was 3.1 ± 0.7, the “ratios of tissues to cerebellum” value ([17]; iv) was 4.5 and the baseline-to-blockade ratio [15] was 5. The specific binding value [15] was 80%.

In the case of `O=S1(=O)c2ccccc2-c2ccc(N3CCN4CCC3CC4)cc21` [Compound 5, 3-(1,4-diazabicyclo[3.2.2]nonan-4-yl)dibenzo[b,d]thiophene 5,5-dioxide, reference compound], the Ki ([5]; read-out: Ki α7-nAChR (reference compounds)) is given as 0.3 nM and 0.5 nM, the Ki [18] is given as 0.023 nM and the “blockade of [18F]7c accumulation in mouse brain” value [19] is given as “dose dependent blockade”.

In the case of `[11CH3]N1CC2CN(c3ccc4c(c3)C(=O)C3C=CC=CC3O4)CC2C1` (centres unmarked), the Ki [2, 22] is given as 11 nM.

For `O=C(Oc1ccc(Br)cc1)N1CCN2CCC1CC2` [Compound 1, reference compound], the Ki [18] is listed as 22 nM, the “effect on accumulation of [18F]7a in mouse brain” value [12] is listed as “reduced accumulation of radioactivity” and the “blockade of [18F]7a accumulation” value [19] is listed as “dose dependent blockade in all regions studied”. For the same compound, the “Mean occupancy of a7-nAChRs” value ([20]; dose of 0.5 mg/kg iv, individual VND values) was 38%, the “Mean occupancy of a7-nAChRs” value ([20]; dose of 0.5 mg/kg iv, mean VND value of 2 doses) was 32.9% and the “Mean occupancy of a7-nAChRs” value ([20]; dose of 5 mg/kg iv, individual VND values) was 80.5%. The “Mean occupancy of a7-nAChRs” value ([20]; dose of 5 mg/kg iv, mean VND value of 2 doses) was 94.1%.

For `O=S1(=O)c2ccccc2-c2ccc(N3CCN4CCC3CC4)c(F)c21` [Compound 7d, 3-(1,4-Diazabicyclo[3.2.2]nonan-4-yl)-4-fluorodibenzo[b,d]-thiophene 5,5-Dioxide], the Ki [6] was 3000 nM, the Ki ([5]; read-out: Ki α7-nAChR) was 1.83 nM and 2.45 nM and the Ki [13] was 292 nM. The Ki [7] was 141 nM, the “selectivity α7/α4β2” value [7] was 66 and the Ki [8] was 1000 nM. For the same compound, the Ki [9] was 838 nM and the Ki [10] was 678 nM.

`O=S1(=O)c2cc(N3CCN4CCC3CC4)ccc2-c2cccc(I)c21` [Compound 14, 3-(1,4-Diazabicyclo[3.2.2]nonan-4-yl)-6-iododibenzo[b,d]-thiophene 5,5-Dioxide] showed a Ki ([5]; read-out: Ki α7-nAChR) of 0.93 nM.

In the case of `[11CH3]N1CC2CN(c3ccc(-c4ccc5[nH]ccc5c4)nc3)CC21` (centres unmarked) [5-(5-(6-[(11)C]methyl-3,6-diazabicyclo[3.2.0]heptan-3-yl)pyridin-2-yl)-1H-indole], the “BPND in cortex, Mice” value [3] is given as 1.9.

For `[125I]c1occc1-c1cnc2c(c1)CC1(CN3CCC1CC3)O2` (centres unmarked), the Ki [2] is given as 0.26 nM and the “BPND in cortex, Mice” value [3] is given as 0.6.

For `[18F]c1ccccc1-c1cnc2c(c1)CC1(CN3CCC1CC3)O2` (centres unmarked), the Ki [2] is listed as 0.2 nM and the “BPND in cortex, Mice” value [3] is listed as 0.8.
